# Assay results published in publication PMC3259734 (ACS medicinal chemistry letters, 2011).
# Where “and” joins values, the source holds several entries; their conditions need not be identical. Equal values may be shown once.
# What was measured:
# MenB [1] = target: T1, MenB (Mycobacterium tuberculosis, UniProt P9WNP5); assay: Steady state kinetics of MenB inhibition; format: biochemical; conditions: steady state kinetic methods
# [2] = tested on: nonreplicating M. tuberculosis (NRP-MTB); conditions: against NRP-MTB; cited from earlier work
# Cytotoxicity assays = format: cell-based
# M. tuberculosis H37Rv [3] = assay: DHNA rescue of growth of treated M. tuberculosis; format: cell-based, Mycobacterium tuberculosis; conditions: DHNA 100 μg/ml added to the media; compound at 2xMIC
# MenB [4] = target: T1, MenB; assay: biochemical; conditions: for ability to inhibit MenB: analogues still able to undergo elimination
# MenE = assay: Direct MenE inhibition assay; format: biochemical; conditions: MenE 100 nM; data not shown
# M. tuberculosis H37Rv [5] = assay: Antibacterial activity; format: cell-based, Mycobacterium tuberculosis; conditions: in words
# T1 sequence (P9WNP5 whole entry): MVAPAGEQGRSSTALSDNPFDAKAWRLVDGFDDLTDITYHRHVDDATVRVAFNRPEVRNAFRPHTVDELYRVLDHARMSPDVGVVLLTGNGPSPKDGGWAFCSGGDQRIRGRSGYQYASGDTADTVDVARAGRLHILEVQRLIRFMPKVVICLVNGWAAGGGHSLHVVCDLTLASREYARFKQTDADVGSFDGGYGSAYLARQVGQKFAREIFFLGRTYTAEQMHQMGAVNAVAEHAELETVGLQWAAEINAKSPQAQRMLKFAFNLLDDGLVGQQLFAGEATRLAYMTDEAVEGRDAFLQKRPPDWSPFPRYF
structure (smiles),measurement,setting,value
CC(C)(COP(=O)(O)OP(=O)(O)OC[C@H]1O[C@@H](n2cnc3c(N)ncnc32)[C@H](O)[C@@H]1OP(=O)(O)O)[C@@H](O)C(=O)NCCC(=O)NCCSC(CC(=O)c1ccccc1Cl)C(=O)O (stereo partly drawn) [Compound 10],mode of MenB inhibition,MenB [1],noncompetitive (mixed)
CC(C)(COP(=O)(O)OP(=O)(O)OC[C@H]1O[C@@H](n2cnc3c(N)ncnc32)[C@H](O)[C@@H]1OP(=O)(O)O)[C@@H](O)C(=O)NCCC(=O)NCCSC(CC(=O)c1ccc(Cl)cc1)C(=O)O (stereo partly drawn) [Compound 7],mode of MenB inhibition,MenB [1],noncompetitive (mixed)
CO[C@H]1/C=C/O[C@@]2(C)Oc3c(C)c(O)c4c(O)c(c(/C=N/N5CCN(C)CC5)c(O)c4c3C2=O)NC(=O)/C(C)=C\C=C\[C@H](C)[C@H](O)[C@@H](C)[C@@H](O)[C@@H](C)[C@H](OC(C)=O)[C@@H]1C [rifampicin],MIC,[2],0.4 µg/mL
"COC(=O)/C=C/C(=O)c1ccc(Cl)cc1 [Compound 3b, 4-Oxo-4-chlorophenylbutenoyl methyl ester]",selectivity ratio,Cytotoxicity assays,> 20
same,rescue of growth by DHNA,M. tuberculosis H37Rv [3],rescue the growth
CC(C(=O)c1ccc(Cl)cc1)C(N[C@@H](C)c1ccccc1)C(=O)O (stereo partly drawn) [Compound 7S],ability to inhibit MenB,MenB [4],retained the ability to inhibit MenB
CC(C)(COP(=O)(O)OP(=O)(O)OC[C@H]1O[C@@H](n2cnc3c(N)ncnc32)[C@H](O)[C@@H]1OP(=O)(O)O)[C@@H](O)C(=O)NCCC(=O)NCCSCCC(=O)c1ccc(Cl)cc1Cl [Compound 18],concentration up to which MenB was not (significantly) inhibited,MenB [4],> 400 µM
COC(=O)/C=C/C(=O)c1ccc(F)cc1 [Compound 2b],selectivity ratio,Cytotoxicity assays,> 20
same,rescue of growth by DHNA,M. tuberculosis H37Rv [3],rescue the growth
CC(NC(CC(=O)c1ccc(F)cc1)C(=O)O)c1ccccc1 (stereo not drawn) [Compound 1548L21],concentration up to which MenE was not inhibited,MenE,> 300 µM
[2H]C([2H])(C(=O)c1ccccc1Cl)C(N[C@@H](C)c1ccccc1)C(=O)O (stereo partly drawn) [Compound 8S],ability to inhibit MenB,MenB [4],retained the ability to inhibit MenB
O=C(O)/C=C/C(=O)c1ccc(Cl)cc1 [Compound 3a],antibacterial activity,M. tuberculosis H37Rv [5],limited antibacterial activity
same,change of IC50 for MenB inhibition with CoA concentration,MenB [4]; data not shown,decreased as the concentration of CoA increased
CC(C)(COP(=O)(O)OP(=O)(O)OC[C@H]1O[C@@H](n2cnc3c(N)ncnc32)[C@H](O)[C@@H]1OP(=O)(O)O)[C@@H](O)C(=O)NCCC(=O)NCCSC(CC(=O)c1ccc(Cl)cc1Cl)C(=O)O (stereo partly drawn) [Compound 16],mode of MenB inhibition,MenB [1],noncompetitive (mixed)
same,IC50,"MenB [4]; IC50, 2-CoA-4-oxo-4-phenylbutanoic acids and analogues, Table 2",~100 nM and 100 nM
